The text below walks through data of patent US8324384B2, “Glucagon receptor antagonist compounds, compositions containing such compounds and methods of use” (Merck Sharp & Dohme Corp., priority 2010, dated 2012).

In the test the target is T1, cloned human glucagon receptor (Homo sapiens, UniProt P47871).
T1 construct: expressed in transfected cells; cell membranes used
Nature of the test: Glucagon Receptor Binding Assay (125I-Glucagon, SPA, CHO cell membranes). Conditions: for IC50: inhibition of 125I-Glucagon binding to membranes of CHO cells expressing human glucagon receptor, more active isomer of indicated compounds; for potency as glucagon receptor antagonist relative to the other diastereomer: racemic diastereomers of Example 5 separated by reverse-phase HPLC, assay not given. The protocol: Glucagon Receptor Binding Assay
A stable CHO (Chinese hamster ovary) cell line expressing cloned human glucagon receptor was maintained as described (Chiechi, et. al. J Biol Chem 272, 7765-9(1997); Cascieri, et. al. J Biol Chem 274, 8694-7(1999)). To determine antagonistic binding affinity of compounds, 0.001-0.003 mg of cell membranes from these cells were pre-incubated with 0.100 mg WGA-coated PVT SPA beads (Amersham) for 20 minutes at room temperature in 25 μL of a buffer containing 50 mM Tris-HCl (pH 7.5), 5 mM MgCl2, 2 mM EDTA, 0.1% BSA and 3% glycerol in Costar 384 well plates with clear bottoms (#3706). Next, 25 μL of ^125I-Glucagon (New England Nuclear, MA) (1×10^−14 mol per well) and either 1 μL solutions of test compounds or 0.001 mM unlabeled glucagon or DMSO were added and mixed. After 4-12 hours incubation at room temperature, the radioactivity bound to the cell membranes was determined in a radioactive emission detection counter (Wallac-Microbeta). Data were analyzed using the Data Analyzer software program of Merck & Co., Inc. The IC50 values were calculated using non-linear regression analysis assuming single-site competition.

T1 sequence (P47871 26-477): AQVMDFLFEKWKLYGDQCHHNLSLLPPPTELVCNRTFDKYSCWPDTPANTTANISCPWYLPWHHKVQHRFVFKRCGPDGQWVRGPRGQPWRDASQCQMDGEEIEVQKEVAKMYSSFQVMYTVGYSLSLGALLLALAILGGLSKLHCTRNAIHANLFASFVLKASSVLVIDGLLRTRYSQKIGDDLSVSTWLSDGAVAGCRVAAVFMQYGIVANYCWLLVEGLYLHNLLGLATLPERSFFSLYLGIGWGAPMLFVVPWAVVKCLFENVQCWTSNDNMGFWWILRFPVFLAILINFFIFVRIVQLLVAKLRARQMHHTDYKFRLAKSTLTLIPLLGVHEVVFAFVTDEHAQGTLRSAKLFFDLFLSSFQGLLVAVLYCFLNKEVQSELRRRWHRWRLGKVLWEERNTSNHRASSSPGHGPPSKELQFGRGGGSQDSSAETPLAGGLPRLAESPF

In general, IC50 refers to the concentration at which inhibition is half-maximal. High values mean weaker potency in that assay, low ones greater potency in that assay. As for `CCCC(c1ccc(C(=O)NCC(O)C(=O)O)cc1)C(C(=O)N1Cc2ccc(OC(F)(F)F)cc2C1)c1ccc(Cl)cc1` (mixture of isomers) [Example 99], the IC50 worked out at 1.1 nM.
Still for that read-out and setting: then `CCCC(c1ccc(C(=O)NC(C)CC(=O)O)cc1)C(C(=O)N1Cc2ccc(OC(F)(F)F)cc2C1)c1ccc(Cl)cc1` (mixture of isomers) [Example 101], with 5.9 nM.
Turning to `CCCC(c1ccc(C(=O)NCCC(=O)O)cc1)C(C(=O)N1CCc2ccccc21)c1ccc(Cl)cc1` (racemic) [Example 3, N-(4-{1-[1-(4-chlorophenyl)-2-(2,3-dihydro-1H-indol-1-yl)-2-oxoethyl]butyl}benzoyl)-β-alanine], the IC50 was determined as 10 nM.
Same read-out and setting: then `CCCC(c1ccc(C(=O)NCCC(=O)O)cc1)C(C(=O)N1Cc2cccc(C(F)(F)F)c2C1)c1ccc(Cl)cc1` (single isomer, unassigned) [Example 1, N-[4-(1-{1-(4-chlorophenyl)-2-oxo-2-[4-(trifluoromethyl)-1,3-dihydro-2H-isoindol-2-yl]ethyl}butyl)benzoyl]-β-alanine], with 0.8 nM.
`CCCC(c1ccc(C(=O)NCCC(=O)O)cc1)C(C(=O)N1CCCc2ccccc21)c1ccc(Cl)cc1` (single isomer, unassigned) [Example 2, N-(4-{1-[1-(4-chlorophenyl)-2-(3,4-dihydroquinolin-1(2H)-yl)-2-oxoethyl]butyl}benzoyl)-β-alanine] yielded an IC50 of 48 nM.
As for `CCCC(c1ccc(C(=O)NCCC(=O)O)cc1)C(C(=O)N1Cc2ccc(-c3cccnc3OC)cc2C1)c1ccc(Cl)cc1` (single isomer, unassigned) [Example 4, N-[4-(1-{1-(4-chlorophenyl)-2-[5-(2-methoxypyridin-3-yl)-1,3-dihydro-2H-isoindol2-yl]-2-oxoethyl}butyl)benzoyl]-β-alanine], the IC50 turned out to be 0.5 nM.
Turning to `CCCC(c1ccc(C(=O)Nc2nnn[nH]2)cc1)C(C(=O)N1Cc2ccc(OC(F)(F)F)cc2C1)c1ccc(Cl)cc1` (single isomer, unassigned) [Example 5 Minor isomer], the “potency as glucagon receptor antagonist relative to the other diastereomer” value is “less potent”.
Compound `CCCC(c1ccc(C(=O)NCCC(=O)O)cc1)C(C(=O)N1Cc2cccc(C)c2C1)c1ccc(Cl)cc1` (single isomer, unassigned) [Example 49] yielded an IC50 of 0.1 nM.
Compound `CCCC(c1ccc(C(=O)NCCC(=O)O)cc1)C(C(=O)N1Cc2cc(Cl)cc(Cl)c2C1)c1ccc(Cl)cc1` (single isomer, unassigned) [Example 55] showed an IC50 of 0.6 nM.
In the case of `CCCC(c1ccc(C(=O)NCCC(=O)O)cc1)C(C(=O)N1CCc2cc(-c3ccc(Cl)cc3)ccc2C1)c1ccc(Cl)cc1` (single isomer, unassigned) [Example 69], the IC50 came to 1 nM.
Turning to `CCCC(c1ccc(C(=O)NCCC(=O)O)cc1)C(C(=O)N1CCc2cc(-c3ccc(C)cc3)ccc2C1)c1ccc(Cl)cc1` (single isomer, unassigned) [Example 70], the IC50 came out at 1.6 nM.
Same read-out and setting: then `CCCC(c1ccc(C(=O)NCCC(=O)O)cc1)C(C(=O)N1CCc2cc(OC)ccc2C1)c1ccc(Cl)cc1` (single isomer, unassigned) [Example 79], with 1.5 nM; and `CCCC(c1ccc(C(=O)NCCC(=O)O)cc1)C(C(=O)N1CCc2cc(C(F)(F)F)ccc2C1)c1ccc(Cl)cc1` (single isomer, unassigned) [Example 80], with 0.9 nM.
Still for that read-out and setting: then `CCCC(c1ccc(C(=O)NCCC(=O)O)cc1)C(C(=O)N1CCc2cc(C)ccc2C1)c1ccc(Cl)cc1` (single isomer, unassigned) [Example 82], with 0.4 nM; and `CCCC(c1ccc(C(=O)NCCC(=O)O)cc1)C(C(=O)N1CCc2ccc(-c3ccc(C)cc3)cc2C1)c1ccc(Cl)cc1` (single isomer, unassigned) [Example 88], with 3.2 nM.
The same measure, in the same setting: with `CCCC(c1ccc(C(=O)NCCC(=O)O)cc1)C(C(=O)N1CCc2ccc(F)cc2C1)c1ccc(Cl)cc1` (single isomer, unassigned) [Example 93] the figure was 9.8 nM.
In the case of `CCCC(c1ccc(C(=O)Nc2nnn[nH]2)cc1)C(C(=O)N1Cc2ccc(OC(F)(F)F)cc2C1)c1ccc(Cl)cc1` (stereo not shown) [Example 5], the IC50 stood at 2.2 nM and the “potency as glucagon receptor antagonist relative to the other diastereomer” value is on record as “more potent”.
For the compound `CCCC(c1ccc(C(=O)NCCC(=O)O)cc1)C(C(=O)N1Cc2ccc(C(F)(F)F)cc2C1)c1ccc(C(F)(F)F)cc1` (stereo not shown) [Example 6], the IC50 turned out to be 0.4 nM.
The same measure, in the same setting: with `CCCC(c1ccc(C(=O)NCCC(=O)O)cc1)C(C(=O)N1Cc2ccc(-c3ccc(OC)nc3)cc2C1)c1ccc(C(F)(F)F)cc1` (stereo not shown) [Example 8] the figure was 0.4 nM; with `CCCC(c1ccc(C(=O)NCCC(=O)O)cc1)C(C(=O)N1Cc2ccc(-c3ccc(OC)nc3)cc2C1)c1cc(F)cc(F)c1` (stereo not shown) [Example 9], 0.4 nM.
The same measure, in the same setting: then `CCCC(c1ccc(C(=O)NCCC(=O)O)cc1)C(C(=O)N1Cc2ccc(-c3cc(OC)ccn3)cc2C1)c1ccc(Cl)cc1` (stereo not shown) [Example 13], with 2 nM.
The same measure, in the same setting: with `CCCC(c1ccc(C(=O)NCCC(=O)O)cc1)C(C(=O)N1Cc2ccc(-c3ccnc(C)c3)cc2C1)c1ccc(Cl)cc1` (stereo not shown) [Example 30] the figure was 0.6 nM; with `CCCC(c1ccc(C(=O)NCCC(=O)O)cc1)C(C(=O)N1Cc2ccc(C#N)cc2C1)c1ccc(Cl)cc1` (stereo not shown) [Example 36], 5.5 nM; with `CCCC(c1ccc(C(=O)NCCC(=O)O)cc1)C(C(=O)N1Cc2ccc(C)cc2C1)c1ccc(Cl)cc1` (stereo not shown) [Example 37], 0.6 nM.
Compound `CCCC(c1ccc(C(=O)NCCC(=O)O)cc1)C(C(=O)N1Cc2ccc(-c3ccc(OC)nc3)cc2C1)c1ccc(Cl)cc1` (stereo not shown) [Example 41] showed a concentration for half-maximal inhibition (IC50) of 0.6 nM.
Still for that read-out and setting: with `CCCC(c1ccc(C(=O)NCCC(=O)O)cc1)C(C(=O)N1CCc2cc(-c3ccc(C)cc3)ccc21)c1ccc(Cl)cc1` (stereo not shown) [Example 63] the figure was 0.2 nM.
In turn, `CCCC(c1ccc(C(=O)NCCS(=O)(=O)O)cc1)C(C(=O)N1Cc2ccc(C(F)(F)F)cc2C1)c1ccc(Cl)cc1` (stereo not shown) [Example 107] showed an IC50 of 1.1 nM.
